Entries after “also recorded” stand apart in the source; their conditions may differ.
System: abdominal adhesions in a rat model of surgical adhesions
Test: rat model of surgical (abdominal) adhesions, small intestine rubbed with latex glove
Assay type: in vivo, Wistar rats
Description: The objective of the current study was to compare the efficacy of enteral saline, enteral Formula A, lavage tranexamic acid (TXA), and enteral Formula A with lavage TXA to prevent abdominal adhesions in a rat model of surgical adhesions.
The tests were conducted on Wistar rats from Harlan/Charles River. The sample size included 40 animals in total, with a target weight of 350-400 g (males). The rat was selected as the test model since it is accepted by regulatory authorities as a rodent animal model for toxicity studies, and high quality animals are readily available and a large amount of background pathology data is available in this species. […] The model reproducibility provides the ability to observe directional proof of concept data within normal experimental conditions.
Four groups were measured; Group 1 served as the control wherein saline (Baxter, 0.9% sodium chloride IV solution bags) was administered via enteral administration; subjects in Group 2 were exposed to an enteral administration of Formula A; subjects in Group 3 were exposed to a lavage of tranexamic acid (TXA) and saline; and subjects in Group 4 were given enteral administration of Formula A and a lavage of tranexamic acid (TXA) and saline.
Prior to the experiment, the animals were fasted and prepared for the adhesion model according to the schedule: (A) Evening Prior to Experiment—Begin Fasting; (B) Day 1: Hour−2.0—Administration of enteral test article (oral gavage); (C) Day 1: Hour 0.0−Induction of anesthesia with ketamine with a dose of 75 mg/kg, I.M; and (D) Day 1: Hour 0+10 min—induction of surgical adhesion model.
A small skin incision in the midline of the abdomen was made for isolation of small intestine. A length of the small intestine was rubbed gently with a latex glove 10 times. Animals were given abdominal lavage test article immediately after the small intestine was rubbed. Laparotomy was sutured and the animal allowed to recover. During surgery, the animals were kept warm (37° C.) at all times by a temperature therapy pad and vital signs (systemic blood pressure or respiratory rate, body temperature) were monitored at all times during experiment. Leg motion and toe reflexes were monitored for anesthetic level. On day 28—The animals were euthanized and the number and size/thickness of adhesions were quantified.

[1] = vs enteral saline Group 1, 2 side T-test

NC[C@H]1CC[C@H](C(=O)O)CC1 [tranexamic acid (TXA), tranexamic acid]
mean number of adhesions per animal (Wistar rats, day 28, enteral = 4 ml oral gavage 2 hr pre surgery, lavage = 4 ml TXA in saline right after rubbing, saline control 4.10): 0.67
mean severity of adhesions (score) (day 28, score 0-4: 4 = no adhesions, 3 ≤1 mm, 2 >1 mm ≤2 mm, 1 >2 mm, 0 = kinked intestine, saline control 1.60): 3.00
number of adhesions relative to the control (in words) [1]: significantly less adhesions relative to the control; also recorded: significant relative to the control Group 1
severity of adhesions relative to the control (in words) [1]: significantly smaller adhesions in terms of severity relative to the control; also recorded: significant relative to the control Group 1
